Converted amounts (≈) assume the structure as drawn.
Tested on: B. fragilis
Experiment: In vitro activity against anaerobes (MIC), B. fragilis
Format: cell-based
Conditions: Bacteroides fragilis, B. fragilis A21900; β-lactamase (-); clindamycin resistant

## CC1=C(C(=O)O)N2C(=O)[C@@H](NC(=O)[C@H](N)c3ccccc3)[C@H]2SC1 [Cephalexin]
  MIC: 12.5 µg/mL (≈ 36 µM)
